Experimental data: paper PMC10467532, “Design, synthesis, and biological evaluation of thiazole/thiadiazole carboxamide scaffold-based derivatives as potential c-Met kinase inhibitors for cancer treatment” (Journal of Enzyme Inhibition and Medicinal Chemistry, 2023)

How the values were obtained:
MKN-45 cells = assay: Apoptosis by Annexin V/PI double staining, flow cytometry; conditions: 24 h, control 6.02%
Protocol: Apoptosis was detected by an Annexin V/propidium iodide (PI) double staining kit (Beyotime Biotechnology, Shanghai, China). […] Cells were harvested by trypsinisation and washed with ice-cold PBS solution. Cells were labelled with annexin V and PI and incubated at room temperature for 30 min in the dark. The labelled cells were analysed by a FACScan flow cytometer (Becton Dickinson, Franklin Lakes, NJ).

EGFR = molecular target: T1, EGFR (Homo sapiens, UniProt P00533); assay: Tyrosine kinase HTRF assay, EGFR; assay type: biochemical
T1 construct: purchased Invitrogen (Waltham, MA)
Protocol: (§1) On the other hand, comprehensive understanding the off-target kinase inhibition is critical for any kinase inhibitors, particularly to help explain the correlations between efficacy and potential side effects. […] The reactions were quenched by addition 10 µL mixed detection solution. […] The inhibition rate (%) was calculated using the following equation: inhibition rate = [(activity of enzyme with tested compound – min)/(max – min)] × 100 (max: the enzyme activity in the presence of enzyme, substrates and cofactors; min: the enzyme activity in the presence of substrates, cofactors and in the absence of enzyme). IC50 value was calculated from the inhibition curve using GraphPad Prism 5.0 software (La Jolla, CA).

Flt-4 = molecular target: T2, Flt-4 (Homo sapiens, UniProt P35916); assay: Tyrosine kinase HTRF assay, Flt-4; assay type: biochemical
T2 construct: purchased Invitrogen (Waltham, MA)
T2 sequence (P35916 25-1363): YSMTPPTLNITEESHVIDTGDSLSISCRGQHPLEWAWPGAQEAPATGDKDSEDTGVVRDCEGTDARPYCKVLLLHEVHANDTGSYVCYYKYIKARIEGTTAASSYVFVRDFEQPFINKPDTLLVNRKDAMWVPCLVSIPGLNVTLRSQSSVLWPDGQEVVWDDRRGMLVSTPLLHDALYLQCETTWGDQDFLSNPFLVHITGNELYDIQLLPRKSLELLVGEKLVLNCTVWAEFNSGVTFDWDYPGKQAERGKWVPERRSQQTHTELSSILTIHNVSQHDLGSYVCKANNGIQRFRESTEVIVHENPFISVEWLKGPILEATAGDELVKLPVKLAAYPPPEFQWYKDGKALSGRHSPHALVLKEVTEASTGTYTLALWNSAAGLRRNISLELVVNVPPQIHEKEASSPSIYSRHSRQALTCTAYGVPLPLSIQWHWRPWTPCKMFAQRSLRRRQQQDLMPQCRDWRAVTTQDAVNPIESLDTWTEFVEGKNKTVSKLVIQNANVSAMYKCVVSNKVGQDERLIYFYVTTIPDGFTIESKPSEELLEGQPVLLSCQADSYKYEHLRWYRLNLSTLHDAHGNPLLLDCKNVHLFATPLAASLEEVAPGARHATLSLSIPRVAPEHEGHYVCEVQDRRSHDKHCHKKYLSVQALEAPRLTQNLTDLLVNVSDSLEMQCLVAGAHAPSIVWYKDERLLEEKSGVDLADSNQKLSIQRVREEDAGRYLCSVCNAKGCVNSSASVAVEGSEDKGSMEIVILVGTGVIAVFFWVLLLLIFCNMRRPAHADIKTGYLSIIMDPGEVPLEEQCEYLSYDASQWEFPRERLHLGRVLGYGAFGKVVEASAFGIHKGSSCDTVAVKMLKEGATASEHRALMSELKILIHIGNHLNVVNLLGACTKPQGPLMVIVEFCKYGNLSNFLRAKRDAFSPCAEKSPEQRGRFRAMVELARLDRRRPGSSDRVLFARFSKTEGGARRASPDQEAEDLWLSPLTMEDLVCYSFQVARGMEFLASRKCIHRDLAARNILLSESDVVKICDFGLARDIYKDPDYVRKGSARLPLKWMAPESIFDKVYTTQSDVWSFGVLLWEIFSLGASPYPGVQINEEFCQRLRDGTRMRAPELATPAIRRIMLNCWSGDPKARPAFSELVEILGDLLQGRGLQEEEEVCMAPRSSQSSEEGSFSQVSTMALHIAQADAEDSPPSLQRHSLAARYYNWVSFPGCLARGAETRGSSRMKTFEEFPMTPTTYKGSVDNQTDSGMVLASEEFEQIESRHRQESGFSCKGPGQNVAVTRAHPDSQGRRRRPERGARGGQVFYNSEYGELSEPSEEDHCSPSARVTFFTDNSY
Protocol: as §1

c-Met Y1230H = molecular target: T3, c-Met Y1230H (Homo sapiens, UniProt P08581, Y1230H); assay: Tyrosine kinase HTRF assay, c-Met Y1230H; assay type: biochemical
T3 construct: purchased Invitrogen (Waltham, MA)
Protocol: as §1

[1] = tested on: PDGFRα, PDGFRβ, VEGFR-2, and Flt-4; assay: Kinase selectivity relative to c-Met; assay type: biochemical
Protocol: as §1

MKN-45 = assay: MTT antiproliferative assay, MKN-45; conditions: Homo sapiens, MKN-45, 48 h, read-out: IC50 MKN-45
Protocol: (§2) MTT assay was used to determine the cytotoxic activity of target compounds against different cell lines. […] Then, the cells were treated with five doses of test compounds (pre-dissolved in DMSO), and 0.1% DMSO was used as a negative control. […] The results expressed as IC50 were the average of three determinations calculated by using the Bacus Laboratories Incorporated Slide Scanner (Bliss) software.

c-kit = molecular target: T4, c-kit (Homo sapiens, UniProt P10721); assay: Tyrosine kinase HTRF assay, c-kit; assay type: biochemical
T4 construct: purchased Invitrogen (Waltham, MA)
T4 sequence (P10721 26-976): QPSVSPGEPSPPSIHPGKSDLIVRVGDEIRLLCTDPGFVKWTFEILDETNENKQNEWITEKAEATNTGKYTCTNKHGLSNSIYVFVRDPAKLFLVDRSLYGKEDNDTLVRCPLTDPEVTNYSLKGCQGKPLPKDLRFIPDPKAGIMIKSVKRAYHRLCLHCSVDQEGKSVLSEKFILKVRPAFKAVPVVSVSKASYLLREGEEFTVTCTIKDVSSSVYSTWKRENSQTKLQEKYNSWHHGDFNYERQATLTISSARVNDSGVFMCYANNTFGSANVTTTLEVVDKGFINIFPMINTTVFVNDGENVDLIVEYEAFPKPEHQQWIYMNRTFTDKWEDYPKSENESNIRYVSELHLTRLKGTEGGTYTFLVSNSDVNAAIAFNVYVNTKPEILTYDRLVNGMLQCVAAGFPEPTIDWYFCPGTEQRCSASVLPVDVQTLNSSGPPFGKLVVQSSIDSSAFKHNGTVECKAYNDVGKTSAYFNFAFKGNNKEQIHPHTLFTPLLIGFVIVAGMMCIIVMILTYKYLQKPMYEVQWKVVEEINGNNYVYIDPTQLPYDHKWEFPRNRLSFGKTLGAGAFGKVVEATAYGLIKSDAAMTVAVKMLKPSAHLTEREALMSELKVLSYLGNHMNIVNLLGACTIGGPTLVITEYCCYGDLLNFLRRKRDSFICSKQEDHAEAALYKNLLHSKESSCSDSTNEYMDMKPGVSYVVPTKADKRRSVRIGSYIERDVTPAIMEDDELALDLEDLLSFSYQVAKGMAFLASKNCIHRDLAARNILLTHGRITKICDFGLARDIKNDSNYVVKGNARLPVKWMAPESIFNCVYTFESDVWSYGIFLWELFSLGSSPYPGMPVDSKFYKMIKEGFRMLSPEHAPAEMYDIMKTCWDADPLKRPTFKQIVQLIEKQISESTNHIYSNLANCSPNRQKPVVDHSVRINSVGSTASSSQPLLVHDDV
Protocol: as §1

FHC = assay: MTT cytotoxicity assay, normal FHC cells; conditions: Homo sapiens, 48 h, read-out: IC50 FHC
Protocol: as §2

A549 = assay: MTT antiproliferative assay, A549; conditions: Homo sapiens, A549, 48 h, read-out: IC50 A549
Protocol: as §2

MDA-MB-231 = assay: MTT antiproliferative assay, MDA-MB-231; conditions: Homo sapiens, MDA-MB-231, 48 h, read-out: IC50 MDA-MB-231
Protocol: as §2

c-Met H1094R = molecular target: T5, c-Met H1094R (Homo sapiens, UniProt P08581, H1094R); assay: Tyrosine kinase HTRF assay, c-Met H1094R; assay type: biochemical
T5 construct: purchased Invitrogen (Waltham, MA)
Protocol: as §1

c-Met M1250T = molecular target: T6, c-Met M1250T (Homo sapiens, UniProt P08581, M1250T); assay: Tyrosine kinase HTRF assay, c-Met M1250T; assay type: biochemical
T6 construct: purchased Invitrogen (Waltham, MA)
Protocol: as §1

Ron = molecular target: T7, Ron (Homo sapiens, UniProt Q04912); assay: Tyrosine kinase HTRF assay, Ron; assay type: biochemical
T7 construct: purchased Invitrogen (Waltham, MA)
T7 sequence (Q04912 25-1400): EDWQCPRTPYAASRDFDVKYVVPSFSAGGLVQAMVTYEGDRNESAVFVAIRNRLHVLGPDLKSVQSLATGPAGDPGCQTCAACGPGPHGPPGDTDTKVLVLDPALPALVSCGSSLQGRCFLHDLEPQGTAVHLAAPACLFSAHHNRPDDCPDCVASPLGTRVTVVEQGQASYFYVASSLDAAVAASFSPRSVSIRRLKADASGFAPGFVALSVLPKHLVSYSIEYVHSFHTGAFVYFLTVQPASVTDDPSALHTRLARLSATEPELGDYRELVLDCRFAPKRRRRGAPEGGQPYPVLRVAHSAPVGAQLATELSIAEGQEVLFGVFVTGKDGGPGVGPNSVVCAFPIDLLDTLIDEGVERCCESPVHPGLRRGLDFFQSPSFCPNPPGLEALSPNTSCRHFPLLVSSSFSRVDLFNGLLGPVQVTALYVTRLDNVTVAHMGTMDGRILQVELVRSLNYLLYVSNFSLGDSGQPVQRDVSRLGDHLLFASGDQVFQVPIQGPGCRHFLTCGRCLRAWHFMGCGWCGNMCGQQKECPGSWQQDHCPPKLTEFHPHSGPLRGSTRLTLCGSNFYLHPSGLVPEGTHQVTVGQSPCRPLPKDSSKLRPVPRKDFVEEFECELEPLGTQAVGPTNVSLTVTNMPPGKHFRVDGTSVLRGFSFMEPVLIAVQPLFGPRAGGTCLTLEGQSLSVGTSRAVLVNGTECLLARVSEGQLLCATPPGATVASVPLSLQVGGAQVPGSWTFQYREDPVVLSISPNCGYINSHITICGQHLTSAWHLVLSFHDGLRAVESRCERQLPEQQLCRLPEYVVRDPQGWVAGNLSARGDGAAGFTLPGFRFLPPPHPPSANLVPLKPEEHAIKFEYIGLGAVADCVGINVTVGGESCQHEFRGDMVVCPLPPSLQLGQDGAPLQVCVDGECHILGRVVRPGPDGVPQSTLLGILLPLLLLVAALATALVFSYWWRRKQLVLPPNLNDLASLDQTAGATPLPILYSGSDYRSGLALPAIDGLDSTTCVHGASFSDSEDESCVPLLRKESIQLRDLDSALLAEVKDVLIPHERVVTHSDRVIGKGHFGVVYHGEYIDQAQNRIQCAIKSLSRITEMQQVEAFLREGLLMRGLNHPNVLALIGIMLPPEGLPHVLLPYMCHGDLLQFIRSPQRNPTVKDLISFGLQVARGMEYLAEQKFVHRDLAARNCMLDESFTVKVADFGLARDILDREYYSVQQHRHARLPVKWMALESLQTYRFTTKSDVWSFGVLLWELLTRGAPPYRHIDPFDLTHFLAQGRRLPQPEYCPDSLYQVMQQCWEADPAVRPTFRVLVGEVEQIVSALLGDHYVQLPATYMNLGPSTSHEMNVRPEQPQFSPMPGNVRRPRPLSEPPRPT
Protocol: as §1

HT-29 = assay: MTT antiproliferative assay, HT-29; conditions: Homo sapiens, HT-29, 48 h, read-out: IC50 HT-29
Protocol: as §2

PDGFRα = molecular target: T8, PDGFRα (Homo sapiens, UniProt P16234); assay: Tyrosine kinase HTRF assay, PDGFRα; assay type: biochemical
T8 construct: purchased Invitrogen (Waltham, MA)
Protocol: as §1

HUVEC = assay: MTT cytotoxicity assay, normal HUVEC cells; conditions: Homo sapiens, 48 h, read-out: IC50 HUVEC
Protocol: as §2

c-Met = molecular target: T9, c-Met (Homo sapiens, UniProt P08581); assay: In vitro c-Met enzymatic assay (HTRF); assay type: biochemical; conditions: HTRF assay; mean ± SD, triplicate; read-out: IC50 against c-Met
T9 construct: purchased Invitrogen (Waltham, MA)

c-Met D1228H = molecular target: T10, c-Met D1228H (Homo sapiens, UniProt P08581, D1228H); assay: Tyrosine kinase HTRF assay, c-Met D1228H; assay type: biochemical
T10 construct: purchased Invitrogen (Waltham, MA)
Protocol: as §1

VEGFR-2 = molecular target: T11, VEGFR-2 (Homo sapiens, UniProt P35968); assay: Tyrosine kinase HTRF assay, VEGFR-2; assay type: biochemical
T11 construct: purchased Invitrogen (Waltham, MA)
T11 sequence (P35968 20-1356): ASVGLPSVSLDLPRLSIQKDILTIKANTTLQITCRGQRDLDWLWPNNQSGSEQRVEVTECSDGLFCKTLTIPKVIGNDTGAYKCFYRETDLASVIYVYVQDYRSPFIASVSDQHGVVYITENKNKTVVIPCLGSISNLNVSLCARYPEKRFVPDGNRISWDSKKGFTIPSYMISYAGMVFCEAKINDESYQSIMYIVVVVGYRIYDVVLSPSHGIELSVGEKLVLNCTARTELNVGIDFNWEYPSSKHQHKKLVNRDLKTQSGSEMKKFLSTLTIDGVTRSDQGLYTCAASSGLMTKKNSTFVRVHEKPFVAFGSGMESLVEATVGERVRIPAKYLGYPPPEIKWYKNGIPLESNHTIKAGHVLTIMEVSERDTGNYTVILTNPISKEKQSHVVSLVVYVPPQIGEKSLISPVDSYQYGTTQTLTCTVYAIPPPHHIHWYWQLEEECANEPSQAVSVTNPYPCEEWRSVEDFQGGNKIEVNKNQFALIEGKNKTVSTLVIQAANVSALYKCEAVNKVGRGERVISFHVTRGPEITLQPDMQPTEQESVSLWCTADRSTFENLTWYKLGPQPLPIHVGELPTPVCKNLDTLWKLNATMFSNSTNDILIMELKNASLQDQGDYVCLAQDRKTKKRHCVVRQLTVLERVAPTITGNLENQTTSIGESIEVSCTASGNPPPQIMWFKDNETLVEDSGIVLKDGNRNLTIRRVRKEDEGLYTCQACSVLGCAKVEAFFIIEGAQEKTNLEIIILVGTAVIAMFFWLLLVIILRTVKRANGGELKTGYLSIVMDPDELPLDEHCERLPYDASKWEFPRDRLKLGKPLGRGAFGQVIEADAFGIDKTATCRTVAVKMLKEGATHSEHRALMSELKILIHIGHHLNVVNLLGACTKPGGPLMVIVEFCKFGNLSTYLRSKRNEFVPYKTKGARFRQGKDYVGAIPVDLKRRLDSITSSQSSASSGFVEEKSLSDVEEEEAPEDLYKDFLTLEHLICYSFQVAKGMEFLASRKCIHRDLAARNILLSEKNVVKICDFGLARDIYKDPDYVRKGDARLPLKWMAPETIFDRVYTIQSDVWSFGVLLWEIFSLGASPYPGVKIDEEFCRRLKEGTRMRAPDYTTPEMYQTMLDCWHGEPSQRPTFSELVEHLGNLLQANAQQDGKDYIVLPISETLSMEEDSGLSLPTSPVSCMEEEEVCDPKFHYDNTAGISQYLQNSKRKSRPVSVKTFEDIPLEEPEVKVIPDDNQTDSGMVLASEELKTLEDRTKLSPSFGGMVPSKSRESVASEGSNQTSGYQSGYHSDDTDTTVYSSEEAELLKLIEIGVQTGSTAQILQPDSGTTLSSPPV
Protocol: as §1

c-Met Y1235D = molecular target: T12, c-Met Y1235D (Homo sapiens, UniProt P08581, Y1235D); assay: Tyrosine kinase HTRF assay, c-Met Y1235D; assay type: biochemical
T12 construct: purchased Invitrogen (Waltham, MA)
Protocol: as §1

PDGFRβ = molecular target: T13, PDGFRβ (Homo sapiens, UniProt P09619); assay: Tyrosine kinase HTRF assay, PDGFRβ; assay type: biochemical
T13 construct: purchased Invitrogen (Waltham, MA)
Protocol: as §1

[2] = Pharmacokinetic study in BALB/c mice; assay type: in vivo; conditions: male, mouse, plasma
Protocol: Identification of drugs with an acceptable balance of potency, physical properties, and pharmacokinetics (PK) has always been a challenge that often hinders evaluation of the compounds in xenograft models and therapeutic use in clinical practice. Therefore, the PK profile of compound 51am was evaluated in BALB/c mice after intravenous (i.v.) injection and oral administration (p.o.) because of its excellent in vitro activity. […] Based on the good overall PK profile, 51am could be a potential candidate for cancer therapy.
The experimental procedures and the animal use and care protocols were approved by the Committee on Ethical Use of Animals of Shenzhen Second People’s Hospital. Each male BALB/c mice received a single compound 51am as a solution in PEG 400/water (70:30) by either oral route (10 mg/kg) or i.v. route (1.5 mg/kg). Blood samples were collected into the microcentrifuge tube containing heparin at time points 0 (prior to dosing) 5, 10, 20, 30, 60, 180, 360, 480, 600, 720, 1080, and 1440 min after dosing. The blood samples were centrifuged; the obtained plasma was separated and stored at –20 °C. All samples for 51am were measured by liquid chromatography–tandem mass spectrometry (LC/MS/MS).

[3] = tested on: c-Met phosphorylation in MKN-45 cells; assay: Western blotting analysis of c-Met phosphorylation; assay type: cell-based, human; conditions: 24 h, 0, 2.5, 5.0, and 10.0 μM
Protocol: To obtain further insight into the mechanism of 51am induced apoptosis, western blot assay was carried out to investigate the effect of 51am on the phosphorylation of c-Met in living cells. MKN-45 cells were treated with 51am for 24 h in a series of concentrations (0, 2.5, 5.0, and 10.0 μM) using DMSO as the negative control, and the level of GAPDH served as the loading control.
MKN-45 cells were incubated with the test compound at various concentrations for 24 h. After incubation, cells were harvested in PBS solution containing proteinase inhibitors and phosphatase inhibitors, and then sonicated. Whole cell lysates were separated by sodium dodecyl sulphate-polyacrylamide gel electrophoresis (SDS-PAGE) and transferred to nitrocellulose membrane (Beyotime Biotechnology, Shanghai, China). The membrane was incubated with primary antibody followed by labelling with horseradish peroxidase (HRP)-conjugated secondary antibody (Beyotime Biotechnology, Shanghai, China). The blots were developed with enhanced chemiluminescence and visualised by an LAS4000 imager (Fuji Photo Film, Minato City, Japan).

Flt-3 = molecular target: T14, Flt-3 (Homo sapiens, UniProt P36888); assay: Tyrosine kinase HTRF assay, Flt-3; assay type: biochemical
T14 construct: purchased Invitrogen (Waltham, MA)
Protocol: as §1

- IC50 (EGFR): > 10000 nM
- IC50 (Flt-4): 276 nM
- IC50 (c-Met Y1230H): 45.8 nM
- fold less potent than against c-Met [1]: 108–207 fold
- IC50 (MKN-45): 92 ± 6 nM
- IC50 (c-kit): 4.94 nM
- IC50 (A549): 830 ± 360 nM
- IC50 (MDA-MB-231): 3940 ± 1320 nM
- IC50 (c-Met H1094R): 93.6 nM
- IC50 (c-Met M1250T): 26.5 nM
- IC50 (Ron): 3.83 nM
- IC50 (HT-29): 680 ± 90 nM
- IC50 (PDGFRα): 425 nM
- IC50 (c-Met): 2.54 ± 0.49 nM
- IC50 (c-Met D1228H): 29.4 nM
- IC50 (VEGFR-2): 527 nM
- IC50 (c-Met Y1235D): 54.2 nM
- IC50 (PDGFRβ): 513 nM
- AUC(0-inf) ([2]; iv, i.v. (1.5 mg/kg)): 2500 ng·h/mL
- Cmax ([2]; iv, i.v. (1.5 mg/kg)): 552 ng/mL
- half-life ([2]; iv, i.v. (1.5 mg/kg)): 3.2 h
- clearance ([2]; iv, i.v. (1.5 mg/kg), CL = dose/AUCi.v.): 10 mL/min/kg
- bioavailability ([2]; oral, p.o. (10 mg/kg) vs i.v. (1.5 mg/kg), read-out: F (oral bioavailability)): 69%
- AUC(0-inf) ([2]; po, p.o. (10 mg/kg)): 11500 ng·h/mL
- Cmax ([2]; po, p.o. (10 mg/kg)): 1760 ng/mL
- Tmax ([2]; po, p.o. (10 mg/kg)): 4.1 h
- half-life ([2]; po, p.o. (10 mg/kg)): 5.6 h
- IC50 (Flt-3): 6.12 nM
Compound: O=C(Nc1ccc(Oc2ccnc(Cl)c2Cl)c(F)c1)c1nc(-c2ccc(F)c(Cl)c2)cs1 [Compound 51am, 4-(3-Chloro-4-fluorophenyl)-N-(4-((2,3-dichloropyridin-4-yl)oxy)-3-fluorophenyl)thiazole-2-carboxamide]
- percentage of apoptotic cells (MKN-45 cells; MKN-45, 0.4 μM): 14.74%
- percentage of apoptotic cells (MKN-45 cells; MKN-45, 0.8 μM): 19.83%
- percentage of apoptotic cells (MKN-45 cells; MKN-45, 1.2 μM): 38.54%
- IC50 (FHC): 8630 ± 1520 nM
- IC50 (HUVEC): 2540 ± 460 nM
- effect on c-Met phosphorylation (western blot) [3]: inhibited c-Met phosphorylation in a dose-dependent manner
